Measured values published in patent US5344841A, “Bis-(hydroxylakylamino)-anthraquinone inhibitors of protein kinase C” (Sphinx Pharmaceuticals Corporation, priority 1992, dated 1994).
Counter-ions that a name gives are not always drawn. Like-named read-outs stand apart in the source and are kept apart here.

Columns and labels:
protein kinase C = assay: Protein kinase C (PKC) inhibition assay (histone H1 phosphorylation); assay type: biochemical; conditions: rat brain PKC, histone H1 substrate
Description: The protein kinase C (PKC) assay is designed to duplicated the in vivo conditions required for protein kinase C function. Therefore, pH, salt and cofactor concentrations are similar to physiologic levels. Histone H1 (lysine rich) is used in the assay as the phosphorylation acceptor protein because it is readily available and serves as a good substrate for protein kinase C. The enzyme is prepared from rat brain and is purified to apparent homogeneity as determined by a single band on silver stained SDS-polyacrylamide. Studies on the mechanism of regulation of protein kinase C by phospholipids, DAG and Ca^+2 have been hampered by the physical properties of the lipid cofactors. In the screening assay, phosphatidylserine (PS) and DAG are cosonicated to form unilamellar and multilamellar vesicles. The concentration of lipids in the assay are suboptimal to maximize the detection potential of the assay for inhibitors. […] The assay is started with the addition of enzyme and stopped after 10 min by the addition of 25% trichloroacetic acid (TCA) and 1.0 mg/ml bovine serum albumin (BSA). The radioactive histone product is retained and washed on glass fiber filters that allow the unreacted ^32 P-ATP to pass through. The amount of phosphorylation is determined by the radioactivity measured in a scintillation counter. Controls are included in every assay to measure background activity in the absence of enzyme, activity in the absence of lipids and the maximum enzyme activity with saturating levels of the activator lipids.

human neutrophils = assay: Neutrophil superoxide anion (O2-) release assay, PMA-stimulated; assay type: cell-based; conditions: PMA-stimulated O2- production
Description: Neutrophils were isolated form whole blood collected from human volunteers. All reagent materials were obtained from Sigma Chemical Company with the exception of isotonic saline (Travenol Lab., Inc. Deerfield, Ill.) and lymphocyte separation medium (Organon Teknika, Durham, N.C.). Whole blood was drawn and mixed with sodium heparin (final conc. 10 units/ml) to prevent clotting. An equal volume of dextran (3.0%) in isotonic saline was added, mixed, and allowed to settle for 30 min to bind red blood cells (RBC). The supernatant was removed, underlayered with lymphocyte separation medium and centrifuged for 40 min at 400 xg in a centrifuge (Beckman GPR, Norcross, Ga.). […] The washed pellet was resuspended in 10 ml HBSS and placed on ice before counting on a hemacytometer. The neutrophil cell concentration is adjusted to 2×10^6 cells/ml with HBSS before adding 0.8 ml cells to 12×75 mm polypropylene test tubes (Fisher Scientific). Test agents are diluted to determine dose response and added at 10×final concentration at a volume of 0.1 ml/tube in duplicate. […] Tubes are then centrifuged at 900 xg for 10 min, 0.5 ml supernatant is removed and added to 0.5 ml H2 O in a microcuvette. Optical density (OD) of cytochrome c is read in a spectrophotometer (Shimadzu) at 550 nm. The ΔOD of cytochrome c is obtained between PMA-stimulated and non-stimulated tubes, and the dose responses of the test agents are compared to the positive controls (which contain HBSS in place of test agents). PMA stimulates O2^- production which reduces cytochrome c. Reducing cytochrome c increases its absorbance, and the change in OD of cytochrome c is proportional to the amount of O2^- produced by PMA stimulation. Inhibition of the O2^- burst by test compounds of the invention is seen as a reduction in the change in optical density. Inhibition is expressed as IC50 μM and is the amount of test compound that will inhibit fifty percent of the PMA-stimulated respiratory outburst, i.e. O2^- production.

[1] = system: MCF-7 human breast tumor cell line; assay: Human tumor growth inhibition, 3H-thymidine incorporation, MCF-7; assay type: cell-based; conditions: Homo sapiens, MCF7, 3 h, read-out: IC50 MCF-7
From the text: (§1) MCF-7 a human breast tumor cell line, and MCF-7/ADR an adriamycin resistant line of MCF-7 cells were obtained from the National Cancer Institute, Frederick, Md. NHEK a human keratinocyte cell line was obtained from Clonetic Corp., San Diego, Calif. 8226 a human myeloma cell line, 8226/MT a Mitoxantrone resistant line of 8226 cells, and 8226 ADR an adriamycin resistant line of 8226 cells were obtained from Dr. Bill Dalton, Arizona Cancer Center, Tuscon, Ariz.
(§2) Human tumor cells are trypsinized (0.05% trypsin, GIBCO), counted with a hemacytometer and seeded at a concentration of 10,000 cells/well in a 96 well microtiter plate. After allowing cells to attach to the surface overnight, the culture medium is aspirated and replaced with 100 μl of fresh medium. Test agents are diluted to determine dose response at 2× final concentration and added in quadruplicate at 100 μl/well to bring the total volume of each well to 200 μl. The microtiter plate is then incubated at 37° C. 5% CO2 overnight (18-24 hrs) before ^3 H-thymidine is added at a concentration of 0.5 μCi/well in 50 μl culture medium. The plate is incubated again for 4 hrs under the same conditions as above. Supernatant is then aspirated and 50 μl trypsin (0.05%, GIBCO) is added to each well. Cells are checked microscopically to determine detachment from surfaces, and plates are then harvested with a cell harvester (PHD, Cambridge Technology, Inc.) Filter papers corresponding to wells are placed in scintillation vials and counted to determine the amount of ^3 H-thymidine incorporated by the cells. Test agent response is compared to a positive control of cell wells with culture media only to determine the IC50. IC50 is the concentration of test compound required to inhibit fifty percent of the incorporation of ^3 H-thymidine into proliferating cells not exposed to test agent. Uptake of ^3 H-thymidine is a standard test for measuring the metabolism of cells. Cells which are actively proliferating take up ^3 H-thymidine, whereas cells that are not proliferating take up ^3 H-thymidine at much slower rates or not at all. Test agents that inhibit the uptake of ^3 H-thymidine thus slow the growth of cells.

[2] = system: MCF-7/ADR adriamycin resistant line of MCF-7 cells; assay: Human tumor growth inhibition, 3H-thymidine incorporation, MCF-7/ADR; assay type: cell-based; conditions: MCF-7/ADR vs MCF-7
From the text: as §1, §2

[3] = system: 8226/ADR adriamycin resistant line of 8226 cells; assay: Human tumor growth inhibition, 3H-thymidine incorporation, 8226/ADR; assay type: cell-based; conditions: 8226/ADR vs 8226
From the text: as §1, §2

[4] = system: 8226 human myeloma cell line; assay: Human tumor growth inhibition, 3H-thymidine incorporation, 8226; assay type: cell-based; conditions: read-out: IC50 8226
From the text: as §1, §2

[5] = system: 8226/MT Mitoxantrone resistant line of 8226 cells; assay: Human tumor growth inhibition, 3H-thymidine incorporation, 8226/MT; conditions: for Resistance Ratio (8226/MT): 8226/MT vs 8226; for IC50: Homo sapiens, read-out: IC50 8226/MT
[6] = system: MCF-7/ADR adriamycin resistant line of MCF-7 cells; assay: Human tumor growth inhibition, 3H-thymidine incorporation, MCF-7/ADR; assay type: cell-based; conditions: NCI/ADR-RES, 3H-thymidine uptake
[7] = system: 8226/ADR adriamycin resistant line of 8226 cells; assay: Human tumor growth inhibition, 3H-thymidine incorporation, 8226/ADR; assay type: cell-based; conditions: 3H-thymidine uptake

| IC50 (protein kinase C) [µM] | Resistance Ratio (IC50 MCF-7/ADR to IC50 MCF-7) [2] | IC50 [6] [µM] | IC50 [7] [µM] | IC50 ([4]; 3H-thymidine uptake) [µM] | IC50 ([1]; 3H-thymidine uptake) [µM] | SMILES | Resistance Ratio (8226/ADR) [3] | further results |
| --- | --- | --- | --- | --- | --- | --- | --- | --- |
| 180 |  |  |  |  |  | CCN(CC)CC(O)CNc1ccc(NCC(O)CO)c2c1C(=O)c1ccccc1C2=O (stereo not drawn) [1c-1 (HCl), 1-(3-Diethyl-2-Hydroxypropylamino)-4-(2,3-Dihydroxypropylamino)-9, 10-Anthracenedione Hydrochloride Salt] |  |  |
|  |  |  | 25 | 18 |  | CCN(CC)CC(O)CNc1ccc(NCC(O)CO)c2c1C(=O)c1ccccc1C2=O (stereo not drawn) [Compound 1c-1] | 1.4 |  |
| 160 |  |  |  |  |  | CCCNCC(O)CNc1ccc(NCC(O)CCl)c2c1C(=O)c1ccccc1C2=O (stereo not drawn) [1a-2 (HCl)] |  |  |
|  |  |  |  |  |  | CCN(CC)CC(O)CNc1ccc(NCC(O)CCl)c2c1C(=O)c1ccccc1C2=O (stereo not drawn) [1a-1 (HCl), 1-(3-Diethylamino-2-Hydroxypropylamino)-4-(3-Chloro-2-Hydroxypropylamino)-9, 10-Anthracenedione Hydrochloride Salt] |  | IC50 (protein kinase C; Hydrochloride Salt): 230 µM; IC50 (protein kinase C; listed as 1a-1 (HCl salt), Hydrochloride Salt): 230 µM; IC50 (human neutrophils; Hydrochloride Salt): > 12.5 µM |
| 110 |  |  |  |  |  | O=C1c2ccccc2C(=O)c2c(NCC(O)CNCc3ccccc3)ccc(NCC(O)CCl)c21 (stereo not drawn) [1a-3 (HCl)] |  |  |
|  | 1.9 | 14.1 | 16.3 | 15 | 7.4 | O=C1c2ccccc2C(=O)c2c(NCC(O)CNCc3ccccc3)ccc(NCC(O)CCl)c21 (stereo not drawn) [Compound 1a-3] | 1.08 |  |
|  | 800 | 4 | 0.18 | 0.03 | 0.005 | O=C1c2c(O)ccc(O)c2C(=O)c2c(NCCNCCO)ccc(NCCNCCO)c21 [MT, reference compound] | 6 | Resistance Ratio (8226/MT) [5]: 3.5; IC50 [5]: 0.105 µM |
|  | 2.2 | 16 | 14.1 | 10.2 | 7.4 | CCCNCC(O)CNc1ccc(NCC(O)CCl)c2c1C(=O)c1ccccc1C2=O (stereo not drawn) [Compound 1a-2] | 1.38 |  |

| SMILES | IC50 (protein kinase C) [µM] | Resistance Ratio (IC50 MCF-7/ADR to IC50 MCF-7) [2] | IC50 [6] [µM] | IC50 [7] [µM] | IC50 ([4]; 3H-thymidine uptake) [µM] | IC50 ([1]; 3H-thymidine uptake) [µM] | Resistance Ratio (8226/ADR) [3] | further results |
| --- | --- | --- | --- | --- | --- | --- | --- | --- |
| CCN(CC)CC(O)CNc1ccc(NCC(O)CCl)c2c1C(=O)c1ccccc1C2=O (stereo not drawn) [1a-1 (base), 1-(3-diethylamino-2-hydroxypropylamino)-4-(chloro-2-hydroxypropylamino)-9,10 anthracenedione] | 180 |  |  |  |  |  |  | IC50 (human neutrophils; Homo sapiens, Neutrophil): > 6.25 µM |
| COc1cccc2c1C(=O)c1c(O)c3c(c(O)c1C2=O)C[C@@](O)(C(=O)CO)C[C@@H]3O[C@H]1C[C@H](N)[C@H](O)[C@H](C)O1 [ADR, reference compound] |  | 200 | 4 | 0.57 |  |  | 11.4 | IC50 [1]: 0.02 µM; IC50 [4]: 0.05 µM; Resistance Ratio (8226/MT) [5]: 1; IC50 [5]: 0.05 µM |
